Assays:
mice = assay: elevated plus-maze; type: in vivo, N.I.H. Swiss-Webster mice; conditions: IP
Text: The theoretical basis for the elevated plus-maze test is similar to that of the light/dark transition test. As described by Pellow et al., J. Neurosci. Meth 14:149-167 (1985), the elevated plus-maze apparatus is designed to utilize the mice's natural aversion to open spaces. The apparatus consists of two open-arms and two enclosed-arms. The elevated plus-maze test allows for two measures of anxiety, the number of entries into the open-arms and the time spent on the open-arms, both expressed as a percentage of the total number of entries and time spent in/on both the open-arms and enclosed-arms.
Male N.I.H. Swiss-Webster mice (Harlan, Indianapolis, IN) weighing 15-20 g were housed four per cage in polyethylene cages with sawdust bedding. The colony room was environmentally controlled (22°C) with a 12 hr light/dark cycle (0600-1800 hr). Food and water were available ad libitum, except during testing. The experiments were run from 0700-1500 hr and groups were counterbalanced for time of day effects. Mice were only administered drug or vehicle once.
The method used was previously described (Lister, Psychopharmacol. 92:180-185 (1987)). The apparatus included two open arms perpendicular to two enclosed arms elevated 50 cm from the floor. Each arm was 50 cm long and the walls of the enclosed arms were 40 cm tall. The maze was made completely of black plexiglass. Incandescent 200 W light bulbs were above each of the open arms to produce a strong contrast between the open arms and the enclosed arms.
Ten minutes after an injection, the N.I.H. Swiss-Webster mice were placed in the center of the plus-maze facing an open arm. During the 5 min test period, the number of entries onto the open arms and the enclosed arms, and the time spent in the open arms and enclosed arms were measured. All four paws had to be within an arm for the dependent variable to be measured. Therefore, the time spent in the center of the maze is not counted, so the total time spent in the open arms and the enclosed arms may not equal 5 min. […]

[1] = test system: metrazol induced convulsions; assay: animal or person; type: in vivo, mice; conditions: IP, 10 mg/kg
Procedure: Experiments were also performed to determine the physiological relevance of neuroactive steroid and GABA receptor interactions by assessing the ability of the compounds of and used in the invention to prevent metrazol induced convulsions in mice. […] The time to onset of myoclonus (presence of forelimb clonic activity) induced by metrazol was determined by observing each mouse for a period of 30 minutes. […]
The anticonvulsant tests are similar to that described above. […] The number of animals with tonic and/or clonic convulsions was recorded. In the maximal electroshock test, 50 mA of current at 60 Hz was delivered through corneal electrodes for 200 msec to induce tonic seizure. The ability of compounds to abolish the tonic component was defined as the endpoint. General CNS depression potential was determined by a rotorod test 10 minutes after the injection of compounds where the number of mice staying on a rotating (6 rpm) rod for 1 minute in one of the three trials was determined. […]

GR complex = assay: modulation of [35S]TBPS binding in rat cerebral cortex P2 homogenate; parameters: species or system Sprague-Dawley rats; IMAX: unit not given here; conditions: for IC50: concentration of compounds to inhibit 50% of control [35S]TBPS binding, 2 nM [35S]TBPS, 25°C, 90 minutes; for IMAX: maximum inhibition of [35S]TBPS binding, I* = Inactive
Procedure: We performed several experiments to determine the nature of the modulation of [^35S]TBPS as affected by the compounds of the invention.
These procedures were performed as follows:
Brains from male Sprague-Dawley rats were removed immediately following sacrifice and the cerebral cortices dissected over ice. […] Briefly, the cortices were gently homogenized in 0.32 M sucrose followed by centrifugation at 1000 x g for 10 minutes. The supernatant was collected and centrifuged at 9000 x g for 20 minutes. The resultant P2 pellet was suspended as a 10% (original wet weight/volume) suspension in 50 mM Na/K phosphate buffer (pH 7.4) 200 mM NaCI to form the homogenate.
One hundred microliter […] aliquots of the P2 homogenate (0.5 milligrams (mg) protein) were incubated with 2 nanomolar (nM) [^35S]TBPS (70-110 curies/millimole;, New England Nuclear, Boston, MA) in the presence or absence of the naturally occurring steroids or their synthetic derivatives to be tested. The tested compounds were dissolved in dimethylsulfoxide (Baker Chem. Co., Phillipsbury, NJ) and added to the incubation mixture in 5 µL aliquots. The incubation mixture was brought to a final volume of 1 mL with buffer. Nonspecific binding was defined as binding in the presence of […]. The effect and specificity of GABA (Sigma Chem. Co., St. Louis, MO) was evaluated by performing all assays in the presence of GABA plus (+)bicuculline (Sigma Chem. Co.). Incubations maintained at 25°C for 90 minutes (steady state conditions) were terminated by rapid filtration through glass fiber filters (No. 32, Schleicher and Schuell, Keene, NH). Filter-bound radioactivity was quantitated by liquid scintillation spectrophotometry.
Various compounds were screened to determine their potential as modulators of [^35S]TBPS binding in vitro. These assays were performed in accordance with the above discussed procedures. […] It is an indication of a compound's in vitro potency. Maximum inhibition is an indication of a compound's in vitro efficacy.

rats = assay: Geller-Seifter conflict test; type: in vivo, Sprague-Dawley rats
Text: This animal model of human anxiety utilizes a conditioned state of conflict in rats to ascertain the anxiolytic properties of drugs. Rats are conditioned to bar press for positive reinforcement under two schedules of behavior (Geller and Seifter, Psychopharmacologia 1:482-492 (1960)). The first includes bar pressing under a […] schedule without punishment. The second component is a fixed ratio schedule with each bar press resulting in a positive reinforcement and a punishment. The punished component produces a state of conflict within the animal. […] An anxiolytic response would increase the punished responding without affecting the unpunished responding.
Male albino Sprague-Dawley rats (Charles River Labs, Wilmington, MA) weighing 250-300 g were used for conflict experiments and were kept on a restricted diet of Purina Lab Chow food pellets with water available at all times to maintain body weight at 85% of their free-feeding young adult levels. Rats were housed individually under a 12-hour light-dark cycle with lights on from 0700-1900.
The anti-anxiety (punishment-lessening) and response depressant effects of […] and […] were measured in rats by the conflict test of Geller and Seifter (1960). In this 63-min test, hungry rats perform a lever-press response to obtain a sweetened milk reward. The reinforcement schedule consists of punishment and nonpunishment components, alternating approximately every 15 min. Rats were trained in test chambers (Coulbourn instruments) with a lever mounted in one wall, a small dipper that delivered the 0.1-mL milk reward (1 part Eagle condensed : milk 2 parts water), and a metal grid floor through which the foot-shock punishment was administered. A DEC PDP 11/73 minicomputer running SKED (State Systems) was used for programming and recording.
Rates initially learned to respond on a continuous reinforcement schedule and progressed rapidly to 30-sec, 1-min, and 2-min variable interval (VI) schedules. On the continuous reinforcement schedule, rats received milk reward following every lever press; on the VI schedules, milk rewards were available at infrequent and variable intervals, eventually at an average of once every 2 min. Four 3-min "conflict" periods were then introduced on the unpunished VI baseline; the first started after 3 min of VI performance and the others were alternated between 12-min periods of VI responding. During conflict periods, which were signalled by the presentation of a light and a tone, the continuous reinforcement schedule was again in force and each lever press delivered both a milk reward and a brief ([…]) foot-shock punishment. Shock intensity was 0.2 mA initially, and.was increased daily in increments of 0.02 mA in order to gradually suppress lever pressing to 5 responses or less per conflict period. This training took 4-6 weeks, after which stable low rates of response were observed during conflict periods and stable high rates in the nonpunishment periods. Drug-induced increases in the rate of punished responses were taken as an index of antianxiety activity, while decreases in the rate of unpunished responses were taken as an index of response depression or sedation.

[2] = 50% hpbcd, 10 minutes prior to metrazol (85 mg/kg)

| Compound | % Control (mice; 50% hpbcd, 10 mg/kg) | % Protected [1, 2] | IC50 (GR complex; no unit printed) | IMAX (GR complex) | other results |
| --- | --- | --- | --- | --- | --- |
| C[C@]12CC[C@](O)(C(F)(F)F)C[C@H]1CC[C@@H]1[C@@H]2CC[C@]2(C)[C@@H](C(=O)CO)CC[C@@H]12 [3α,21 Dihydroxy-3β-trifluoromethyl-5β-pregnan-20-one] | 237% | 50% | 354 nM | 102 | Geller/Seifter (% of control) (rats; sc, 50% hpbcd, 16 mg/kg): 982.4 % of control |
| CC(=O)OCC(=O)[C@H]1CC[C@H]2[C@@H]3CC[C@@H]4C[C@@](O)(C(F)(F)F)CC[C@]4(C)[C@H]3CC[C@]12C [3α,21-Dihydroxy-3β-trifluoromethyl-5β-pregnan-20-one, 21-acetate] |  | 62.5% | 370 nM | 88 | % Control (mice; 50% hpbcd, 5 mg/kg): 143.3%; Geller/Seifter (% of control) (rats; sc, 50% hpbcd, 8 mg/kg): 882.8 % of control |
| C[C@]12CC[C@](O)(C(F)(F)F)C[C@H]1CC[C@@H]1[C@@H]2CC[C@]2(C)[C@@H](C(=O)COC(=O)CCC(=O)[O-])CC[C@@H]12.[Na+] [3α,21-Dihydroxy-3β-trifluoromethyl-5β-pregnan-20-one, 21-hemisuccinate, sodium salt] |  |  |  | 99 | % Control (mice; water, 20 mg/kg): 172.8%; % Protected ([1]; water): 62.5%; IC50 (GR complex; unit inferred, sodium salt): 712 nM; Geller/Seifter (% of control) (rats; po, water, 8 mg/kg): 840.0 % of control |
| C#C[C@@]1(O)CC[C@@]2(C)[C@H](CC[C@@H]3[C@@H]2CC[C@]2(C)[C@@H](C(=O)COC(=O)CCC(=O)O)CC[C@@H]32)C1 [3α,21-dihydroxy-3β-ethynyl-5β-pregnan-20-one 21 hemisuccinat] [3α,21-dihydroxy-3β-ethynyl-5β-pregnan-20-one 21 hemisuccinate] | 164.2% |  |  | 82 | % Protected ([1]; water): 50%; Geller/Seifter (% of control) (rats; po, water, 16 mg/kg): 1350.0 % of control |
| C[C@]12CC[C@H]3[C@@H](CC[C@@H]4C[C@@](O)(C(F)(F)F)CC[C@@H]43)[C@@H]1CC[C@@H]2C(=O)COC(=O)CCC(=O)[O-].[Na+] [3α,21-dihydroxy-3β-trifluoromethyl-19-nor-5β-pregnan-20-one, 21-hemisuccinate, sodium salt] |  |  | 530 nM | 101 | % Control (mice; water, 20 mg/kg): 161.1%; % Protected ([1]; water): 50%; Geller/Seifter (% of control) (rats; po, water, 8 mg/kg): 2493.4 % of control |
| CC1([C@H]2CC[C@H]3[C@@H]4CC[C@H]5C[C@](C)(O)CC[C@]5(C)[C@H]4CC[C@]23C)NC(C(=O)O)CS1 (stereo partly drawn) [3α-Hydroxy-3β-methyl-5α-pregnane-20-spiro-2'-(1'3'-thiazolidine-4'-carboxylic acid)] |  |  |  |  | Geller/Seifter (% of control) (rats; sc, 50% hpbcd, 16 mg/kg): 900.0 % of control |
| CC=C1CCC2C3CCC4CC(O)(C(F)(F)F)CCC4C3CCC12C (stereo not drawn) [3α-Hydroxy-3β-trifluoromethyl-5β-19-norpregn-17(20)(Z)-ene] |  | 25% |  |  | Geller/Seifter (% of control) (rats; sc, 50% hpbcd, 16 mg/kg): 1130.3 % of control |
| CC(=O)[C@H]1CC[C@H]2[C@@H]3CC[C@@H]4C[C@@](O)(C(F)(F)F)CC[C@]4(C)[C@H]3C=C[C@]12C [3α-Hydroxy-3β-trifluoromethyl-5β-pregn-11-en-20-one] |  |  | 203 nM | 99 | Geller/Seifter (% of control) (rats; sc, 50% hpbcd, 4 mg/kg): 508.3 % of control |
| C=C(C)C#C[C@@]1(O)CC[C@@]2(C)[C@H](CC[C@@H]3[C@@H]2CC[C@]2(C)[C@@H](C(C)=O)CC[C@@H]32)C1 [3α-hydroxy-3β-(3'-methyl-but-3'-en-1'-ynyl)-5β-pregnan-20-one] | 155% | 100% | 24 nM | 91 |  |
| CC(=O)[C@H]1CC[C@H]2[C@@H]3CC[C@H]4C[C@@](O)(C(F)(F)F)CC[C@@H]4[C@H]3CC[C@]12C [3β-Trifluoromethyl-3α-hydroxy-5α-19-norpregnan-20-one] | 161% | 25% | 251 nM | 40 |  |
| C=C[C@@]1(O)CC[C@@]2(C)[C@H](CC[C@@H]3[C@@H]2CC[C@]2(C)[C@@H](C(C)=O)CC[C@@H]32)C1 [3β-ethenyl-3α-hydroxy-5β-pregnan-20-one] | 151% | 87.5% | 46 nM | 100 |  |
| C#C[C@@]1(O)CC[C@H]2[C@H](CC[C@@H]3[C@@H]2CC[C@]2(C)[C@@H](C(C)=O)CC[C@@H]32)C1 [3β-ethynyl-3α-hydroxy-19-nor-5β-pregnan-20-one] | 172% | 87.5% | 44 nM | 93 |  |
| Bis (3α,21-dihydroxy-3β-trifluoromethyl-5β-pregnan-20-one) 21-hemisuccinate | 92% | 25% | 189 nM | 23 |  |
